Read-outs that look alike come from different tables or passages of the source.
Assays:
hCA I = hCA I (Homo sapiens, UniProt P00915); test: stopped flow CO2 hydrase assay, hCA I inhibition
Method: (§1) An Applied Photophysics stopped-flow instrument has been used for assaying the CA catalyzed CO2 hydration activity using the Khalifah procedure [23]. The used indicator was phenol red (0.2 mM), the absorbance maximum was of 557 nm, and the buffer was 20 mM Hepes (pH 7.5), whereas 20 mM Na2SO4 were employed for maintaining the ionic strength constant. […] Uncatalyzed rates were subtracted from the observed total rates. […] Inhibitor and enzyme solutions were preincubated together for 15 min, for assuring the formation of the E–I complex. The inhibition constants were obtained by non-linear least squares using the Cheng–Prusoff equation, as reported earlier [24, 25, 26] and represent the mean from at least three different determinations.

hCA IX = hCA IX (Homo sapiens, UniProt Q16790); test: stopped flow CO2 hydrase assay, hCA IX inhibition
Method: as §1

hCA XII = hCA XII (Homo sapiens, UniProt O43570); test: stopped flow CO2 hydrase assay, hCA XII inhibition
Method: as §1

hCA II = hCA II (Homo sapiens, UniProt P00918); test: stopped flow CO2 hydrase assay, hCA II inhibition
Method: as §1

[1] = read-out: Ki (nM) hCAI, Table 2, thioureas 6a-y, recombinant enzyme, 15 min preincubation, mean of at least three determinations
[2] = read-out: Ki (nM) hCAIX, Table 2, thioureas 6a-y, recombinant enzyme, 15 min preincubation, mean of at least three determinations
[3] = read-out: Ki (nM) hCAXII, Table 2, thioureas 6a-y, recombinant enzyme, 15 min preincubation, mean of at least three determinations
[4] = read-out: Ki (nM) hCAII, Table 2, thioureas 6a-y, recombinant enzyme, 15 min preincubation, mean of at least three determinations

Chain of hCA I (P00915 whole entry): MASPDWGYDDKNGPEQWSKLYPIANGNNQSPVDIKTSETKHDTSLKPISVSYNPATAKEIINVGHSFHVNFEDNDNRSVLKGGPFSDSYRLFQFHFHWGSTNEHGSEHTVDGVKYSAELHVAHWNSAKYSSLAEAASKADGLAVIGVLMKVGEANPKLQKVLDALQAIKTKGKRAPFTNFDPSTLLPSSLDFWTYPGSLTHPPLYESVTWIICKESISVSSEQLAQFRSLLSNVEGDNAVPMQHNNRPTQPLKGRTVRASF
Chain of hCA XII (O43570 25-354): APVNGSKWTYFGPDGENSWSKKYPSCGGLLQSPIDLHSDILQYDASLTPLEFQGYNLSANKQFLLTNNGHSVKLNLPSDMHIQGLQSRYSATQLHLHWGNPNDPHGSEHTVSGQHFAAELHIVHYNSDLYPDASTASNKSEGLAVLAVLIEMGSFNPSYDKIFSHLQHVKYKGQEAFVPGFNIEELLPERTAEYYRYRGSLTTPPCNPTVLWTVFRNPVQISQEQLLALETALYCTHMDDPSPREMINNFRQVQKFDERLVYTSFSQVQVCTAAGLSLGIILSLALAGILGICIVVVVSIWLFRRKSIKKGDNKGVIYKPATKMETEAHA

Row | Molecule | Ki (hCA I) [nM] | Ki (hCA IX) [nM] | Ki (hCA XII) [nM] | Ki (hCA II) [nM] | melting point [°C] | further results
1 | 2-(1-(3-sulfamoylbenzoyl)piperidine-4-carbonyl)-N-(p-tolyl)hydrazine-1-carbothioamide [Compound 6s] |  |  |  |  |  | Ki (hCA I; [1]): 56.5 nM; Ki (hCA IX; [2]): 9.3 nM; Ki (hCA XII; [3]): 2.6 nM; increase in hCA XII activity as compared to the 2-methyl analog (hCA XII; versus 6r): about 8 fold; Ki (hCA II; [4]): 4.3 nM; increase in hCA II activity as compared to the 2-methyl analog (hCA II; versus 6r): about 8 fold
2 | 2-(1-(3-sulfamoylbenzoyl)piperidine-4-carbonyl)-N-(p-tolyl)hydrazine-1-carbothioamide [Compound 6t] |  |  |  |  |  | Ki (hCA I; [1]): 613 nM; Ki (hCA IX; [2]): 28.4 nM; Ki (hCA XII; [3]): 31 nM; Ki (hCA II; [4]): 58 nM
3 | 4-(4-(4-(4-(Trifluoromethyl)phenyl)piperazine-1-carbonyl)piperidine-1-carbonyl)benzenesulfonamide [Compound 6c] |  |  |  |  |  | Ki (hCA IX; [2]): 7.2 nM; Ki (hCA XII; [3]): 4.5 nM
4 | NS(=O)(=O)c1ccc(C(=O)N2CCC(C(=O)NNC(=O)Nc3ccc(F)cc3)CC2)cc1 [Compound 5h] | 60.6 | 2.1 | 24 | 12.1 |  | 
5 | Cc1ccc(NC(=O)NNC(=O)C2CCN(C(=O)c3ccc(S(N)(=O)=O)cc3)CC2)cc1 [Compound 5l] | 81.7 | 8.1 | 36.7 | 22 |  | 
6 | Cc1cc(C)cc(NC(=O)NNC(=O)C2CCN(C(=O)c3ccc(S(N)(=O)=O)cc3)CC2)c1 [Compound 5n, N-(3,5-Dimethylphenyl)-2-(1-(4-sulfamoylbenzoyl)piperidine-4-carbonyl)hydrazinecarboxamide] | 165 | 34.4 | 44.7 | 47.8 | 216 to 217 | 
7 | COc1ccccc1NC(=O)NNC(=O)C1CCN(C(=O)c2ccc(S(N)(=O)=O)cc2)CC1 [Compound 5o] | 451 | 8.6 | 19.6 | 185 | 219 to 220 | 
8 | COc1ccc(NC(=O)NNC(=O)C2CCN(C(=O)c3ccc(S(N)(=O)=O)cc3)CC2)cc1 [Compound 5q] | 487 | 8.9 | 9.1 | 99.7 | 228 to 230 | 
9 | COc1ccc(NC(=O)NNC(=O)C2CCN(C(=O)c3ccc(S(N)(=O)=O)cc3)CC2)c(OC)c1 [Compound 5r] | 322 | 23.2 | 15.6 | 19.8 |  | 
10 | NS(=O)(=O)c1ccc(C(=O)N2CCC(C(=O)NNC(=O)NCc3ccccc3)CC2)cc1 [Compound 5t] | 77.8 | 40 | 20.1 | 48.2 |  | 
11 | COc1ccc(CNC(=O)NNC(=O)C2CCN(C(=O)c3ccc(S(N)(=O)=O)cc3)CC2)cc1 [Compound 5u] | 130 | 45.3 | 6.4 | 40.7 |  | selectivity for hCAXII compared with hCAII and hCAIX (hCA XII; hCA XII versus hCA II and hCA IX): about 6 fold
12 | NS(=O)(=O)c1ccc(C(=O)N2CCC(C(=O)NNC(=S)Nc3ccccc3)CC2)cc1 [Compound 6a, N-phenyl-2-(1-(4-sulfamoylbenzoyl)piperidine-4-carbonyl)hydrazine-1-carbothioamide] | 30.1 | 28.8 | 3.2 | 26.5 | 210 to 211 | selectivity of hCA XII inhibition on hCA I and hCA II (hCA XII; hCA XII versus hCA I and hCA II): about 8 fold
13 | NS(=O)(=O)c1ccc(C(=O)N2CCC(C(=O)NNC(=S)Nc3ccc([N+](=O)[O-])cc3)CC2)cc1 [Compound 6b, N-(4-Nitrophenyl)-2-(1-(4-sulfamoylbenzoyl)piperidine-4-carbonyl)hydrazinecarbothioamide] | 298 | 13.6 | 45 | 60.4 | 236 to 237 | selectivity on hCA IX compared to hCA I (hCA IX; hCA IX versus hCA I): about 22 fold; selectivity on hCA IX compared to hCA II (hCA IX; hCA IX versus hCA II): about 4 fold; selectivity on hCA IX compared to hCA XII (hCA IX; hCA IX versus hCA XII): ~3 fold
14 | NS(=O)(=O)c1ccc(C(=O)N2CCC(C(=O)NNC(=S)Nc3ccccc3Cl)CC2)cc1 [Compound 6d, N-(2-Chlorophenyl)-2-(1-(4-sulfamoylbenzoyl)piperidine-4-carbonyl)hydrazinecarbothioamide] | 173 | 8.2 | 27.1 | 20.6 | 209 to 210 | 
15 | NS(=O)(=O)c1ccc(C(=O)N2CCC(C(=O)NNC(=S)Nc3cccc(Cl)c3)CC2)cc1 [Compound 6e, N-(3-Chlorophenyl)-2-(1-(4-sulfamoylbenzoyl)piperidine-4-carbonyl)hydrazinecarbothioamide] | 323 | 18 | 9.7 | 16.6 | 226 to 227 | 
16 | NS(=O)(=O)c1ccc(C(=O)N2CCC(C(=O)NNC(=S)Nc3cccc(F)c3)CC2)cc1 [Compound 6o, N-(3-Fluorophenyl)-2-(1-(4-sulfamoylbenzoyl)piperidine-4-carbonyl)hydrazinecarbothioamide] | 590 |  |  | 102 |  | Ki (hCA IX; [2]): 5.6 nM
17 | N-(1-Phenylethyl)-2-(1-(4-sulfamoylbenzoyl)piperidine-4-carbonyl)hydrazinecarbothioamide [Compound 6x] |  |  |  |  |  | Ki (hCA I; [1]): 76.6 nM; Ki (hCA IX; [2]): 2.9 nM; Ki (hCA XII; [3]): 10.4 nM; Ki (hCA II; [4]): 7.6 nM

Second part, led by results:

Row | Ki (hCA I) [nM] | Ki (hCA IX) [nM] | Ki (hCA XII) [nM] | Ki (hCA II) [nM] | melting point [°C] | Molecule | further results
18 | 93.3 | 16.5 | 22.8 | 29.3 |  | NS(=O)(=O)c1ccc(C(=O)N2CCC(C(=O)NNC(=O)Nc3ccccc3)CC2)cc1 [Compound 5a] | 
19 | 164 | 25.1 | 13.6 | 15.3 | 214 to 215 | NS(=O)(=O)c1ccc(C(=O)N2CCC(C(=O)NNC(=O)Nc3ccccc3Cl)CC2)cc1 [Compound 5b, N-(2-Chlorophenyl)-2-(1-(4-sulfamoylbenzoyl)piperidine-4-carbonyl)hydrazinecarboxamide] | 
20 | 218 | 37.8 | 44.6 | 5.1 |  | NS(=O)(=O)c1ccc(C(=O)N2CCC(C(=O)NNC(=O)Nc3cccc(Cl)c3)CC2)cc1 [Compound 5c] | 
21 | 447 | 93.7 | 101 | 109 | 209 to 210 | NS(=O)(=O)c1ccc(C(=O)N2CCC(C(=O)NNC(=O)Nc3ccc(Cl)cc3)CC2)cc1 [Compound 5d, N-(4-Chlorophenyl)-2-(1-(4-sulfamoylbenzoyl)piperidine-4-carbonyl)hydrazinecarboxamide] | 
22 | 259 | 28.9 | 16.4 | 68.8 |  | NS(=O)(=O)c1ccc(C(=O)N2CCC(C(=O)NNC(=O)Nc3c(Cl)cccc3Cl)CC2)cc1 [Compound 5e] | 
23 | 562 | 22.5 | 8.4 | 24.6 | 229 to 230 | NS(=O)(=O)c1ccc(C(=O)N2CCC(C(=O)NNC(=O)Nc3ccccc3F)CC2)cc1 [Compound 5f, N-(2-fluorophenyl)-2-(1-(4-sulfamoylbenzoyl)piperidine-4-carbonyl)hydrazinecarboxamide] | 
24 | 277 | 89.7 | 19.4 | 17.7 | 214 to 215 | NS(=O)(=O)c1ccc(C(=O)N2CCC(C(=O)NNC(=O)Nc3cccc(F)c3)CC2)cc1 [Compound 5g, N-(3-fluorophenyl)-2-(1-(4-sulfamoylbenzoyl)piperidine-4-carbonyl)hydrazinecarboxamide] | 
25 | 184 | 10.1 | 12.7 | 8.6 | 194 to 195 | NS(=O)(=O)c1ccc(C(=O)N2CCC(C(=O)NNC(=O)Nc3c(F)cccc3F)CC2)cc1 [Compound 5i, N-(2,6-difluorophenyl)-2-(1-(4-sulfamoylbenzoyl)piperidine-4-carbonyl)hydrazinecarboxamide] | 
26 | 67.6 | 34.5 | 60.4 | 25.4 | 238 to 240 | Cc1ccccc1NC(=O)NNC(=O)C1CCN(C(=O)c2ccc(S(N)(=O)=O)cc2)CC1 [Compound 5j, 2-(1-(4-Sulfamoylbenzoyl)piperidine-4-carbonyl)-N-(o-tolyl)hydrazinecarboxamide] | 
27 | 94.5 | 8.2 | 15.6 | 114 | 222 to 225 | Cc1cccc(NC(=O)NNC(=O)C2CCN(C(=O)c3ccc(S(N)(=O)=O)cc3)CC2)c1 [Compound 5k, 2-(1-(4-Sulfamoylbenzoyl)piperidine-4-carbonyl)-N-(m-tolyl)hydrazinecarboxamide] | 
28 | 364 | 25.1 | 51.2 | 62.1 | 212 to 213 | Cc1cccc(C)c1NC(=O)NNC(=O)C1CCN(C(=O)c2ccc(S(N)(=O)=O)cc2)CC1 [Compound 5m, N-(2,6-Dimethylphenyl)-2-(1-(4-sulfamoylbenzoyl)piperidine-4-carbonyl)hydrazinecarboxanide] | 
29 | 281 | 24 | 17 | 45.6 | 218 to 220 | COc1cccc(NC(=O)NNC(=O)C2CCN(C(=O)c3ccc(S(N)(=O)=O)cc3)CC2)c1 [Compound 5p, (3-Methoxyphenyl)-2-(1-(4-sulfamoylbenzoyl)piperidine-4-carbonyl)hydrazinecarboxamide] | increase of activity on hCA II on shifting the methoxy group into 3-position (hCA II; versus methoxy analogs 5o/5q): about 2 fold
